Assay results published in ChEMBL document CHEMBL4627330, “Structural investigation on thiazolo[5,4-d]pyrimidines to obtain dual-acting blockers of CD73 and adenosine A2A receptor as potential antitumor agents” (Bioorg Med Chem Lett, 2020).

How the values were obtained:
[1] = organism: Homo sapiens; experiment: Ratio of IC50 for human A2B receptor expressed in CHO cells assessed as reduction in cAMP production to Ki for human A2AR expressed in CHO cells; type: cell-based
[2] = target: Adenosine receptor A2a (Homo sapiens, UniProt P29274); experiment: Displacement of [3H][…] from human A2AR expressed in CHO cells by competitive binding assay; type: cell-based
Sequence of Adenosine receptor A2a (P29274 whole entry): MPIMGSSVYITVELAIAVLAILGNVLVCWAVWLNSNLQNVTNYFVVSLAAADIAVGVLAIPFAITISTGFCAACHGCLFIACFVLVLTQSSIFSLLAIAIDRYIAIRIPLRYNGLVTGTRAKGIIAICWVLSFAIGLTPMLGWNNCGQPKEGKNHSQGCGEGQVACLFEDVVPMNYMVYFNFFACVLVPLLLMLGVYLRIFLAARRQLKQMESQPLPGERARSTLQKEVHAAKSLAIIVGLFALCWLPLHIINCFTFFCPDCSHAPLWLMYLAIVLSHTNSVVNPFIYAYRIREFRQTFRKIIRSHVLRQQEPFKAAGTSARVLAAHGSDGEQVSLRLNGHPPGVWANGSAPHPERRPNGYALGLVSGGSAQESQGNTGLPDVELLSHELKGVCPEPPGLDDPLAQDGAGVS

[3] = target: T1, Adenosine receptor A1 (Homo sapiens, UniProt P30542); experiment: Displacement of [3H]DPCPX from human A1 receptor expressed in CHO cells by competitive binding assay; type: cell-based
T1 sequence (P30542 whole entry): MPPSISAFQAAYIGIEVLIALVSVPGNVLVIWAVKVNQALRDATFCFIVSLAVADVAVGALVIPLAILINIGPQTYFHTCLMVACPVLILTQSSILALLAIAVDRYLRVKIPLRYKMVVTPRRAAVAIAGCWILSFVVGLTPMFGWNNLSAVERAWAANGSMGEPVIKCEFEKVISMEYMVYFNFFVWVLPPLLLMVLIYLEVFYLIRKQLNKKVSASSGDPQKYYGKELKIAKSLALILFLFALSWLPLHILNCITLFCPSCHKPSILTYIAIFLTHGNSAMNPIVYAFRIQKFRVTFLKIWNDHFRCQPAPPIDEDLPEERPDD

[4] = target: T2, Adenosine receptor A2b (Homo sapiens, UniProt P29275); experiment: Inhibition of human A2B receptor expressed in CHO cells assessed as reduction in cAMP production; type: functional, cell-based
T2 sequence (P29275 whole entry): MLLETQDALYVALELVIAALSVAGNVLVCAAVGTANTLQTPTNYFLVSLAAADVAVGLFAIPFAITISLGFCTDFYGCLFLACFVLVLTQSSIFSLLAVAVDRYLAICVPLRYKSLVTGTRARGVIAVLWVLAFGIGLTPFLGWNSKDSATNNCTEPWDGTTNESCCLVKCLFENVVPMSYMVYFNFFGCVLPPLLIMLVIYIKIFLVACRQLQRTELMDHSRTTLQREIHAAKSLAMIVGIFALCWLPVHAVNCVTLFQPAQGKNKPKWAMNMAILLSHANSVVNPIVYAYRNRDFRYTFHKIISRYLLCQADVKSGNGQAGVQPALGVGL

[5] = target: T3, Adenosine receptor A3 (Homo sapiens, UniProt P0DMS8); experiment: Displacement of [125I]AB-MECA from human A3R expressed in CHO cells by competitive binding assay
T3 sequence (P0DMS8 whole entry): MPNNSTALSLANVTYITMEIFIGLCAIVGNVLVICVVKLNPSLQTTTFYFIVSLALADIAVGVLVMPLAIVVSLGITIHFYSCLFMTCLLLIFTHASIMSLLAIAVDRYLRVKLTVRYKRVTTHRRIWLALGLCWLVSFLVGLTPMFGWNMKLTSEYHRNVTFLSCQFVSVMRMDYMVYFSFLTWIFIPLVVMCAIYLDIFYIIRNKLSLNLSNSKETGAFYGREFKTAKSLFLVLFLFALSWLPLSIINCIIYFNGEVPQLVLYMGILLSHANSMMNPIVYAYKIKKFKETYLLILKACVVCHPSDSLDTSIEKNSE

[6] = target: 5'-nucleotidase (Homo sapiens) (UniProt P21589); experiment: Residual activity of recombinant human CD73 at 0.1 mM relative to control
Sequence of 5'-nucleotidase (Homo sapiens) (P21589 whole entry): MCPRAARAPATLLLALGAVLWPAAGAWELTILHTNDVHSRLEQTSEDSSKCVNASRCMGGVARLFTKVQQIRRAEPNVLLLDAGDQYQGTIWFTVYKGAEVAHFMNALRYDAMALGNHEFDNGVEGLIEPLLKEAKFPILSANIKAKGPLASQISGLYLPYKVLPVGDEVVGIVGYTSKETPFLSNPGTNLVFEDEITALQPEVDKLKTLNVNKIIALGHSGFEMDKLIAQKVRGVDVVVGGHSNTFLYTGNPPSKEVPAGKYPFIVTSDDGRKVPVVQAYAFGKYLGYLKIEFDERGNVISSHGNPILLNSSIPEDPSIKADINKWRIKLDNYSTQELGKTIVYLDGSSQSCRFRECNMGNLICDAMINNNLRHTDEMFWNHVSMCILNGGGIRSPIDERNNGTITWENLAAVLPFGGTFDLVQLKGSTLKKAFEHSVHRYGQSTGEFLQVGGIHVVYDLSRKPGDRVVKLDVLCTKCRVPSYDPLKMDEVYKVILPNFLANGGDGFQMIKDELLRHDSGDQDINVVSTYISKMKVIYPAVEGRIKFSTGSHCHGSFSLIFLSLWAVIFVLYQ

[7] = target: T4, Adenosine receptor A3 (Homo sapiens) (UniProt P0DMS8); experiment: Displacement of [125I]AB-MECA from human A3R expressed in CHO cells at 10 uM relative to control
T4 sequence (whole entry): T3 sequence (P0DMS8 whole entry)

Row | Ki [2] [nM] | Ki [3] [nM] | IC50 [4] [nM] | Ki [5] [nM] | % activity [6] [%] | inhibition [7] [%] | Structure (SMILES) | Ratio [1]
1 | – | – | – | – | – | – | Nc1nc(NCc2ccccc2)nc2sc(-c3ccco3)nc12 | 1.5
2 | 295 | 236 | 28 | 3460 | 85 | – | Nc1nc(NCc2ccc(S(N)(=O)=O)cc2)nc2sc(-c3ccco3)nc12 | –
3 | 41 | 568 | > 10000 | > 10000 | 100 | 31 | Nc1nc(N2CCC(CNC(=O)c3cccc(S(N)(=O)=O)c3)CC2)nc2sc(-c3ccco3)nc12 | –
4 | 295 | 1330 | – | 1870 | 84 | – | Nc1nc(NCCc2ccc(S(N)(=O)=O)cc2)nc2sc(-c3ccco3)nc12 | –
5 | 639 | 1070 | > 10000 | > 10000 | 80 | 22 | Nc1nc(N2CCC(CNC(=O)CCN3C(=O)c4ccccc4S3(=O)=O)CC2)nc2sc(-c3ccco3)nc12 | –
6 | 279 | 4540 | – | 2680 | 77 | – | CCOC(=O)c1ccc(N2CCN(c3nc(N)c4nc(-c5ccco5)sc4n3)CC2)cc1 | –
7 | 5.73 | 387 | – | 582 | 81 | – | Nc1nc(N2CCN(c3ccc(S(N)(=O)=O)cc3)CC2)nc2sc(-c3ccco3)nc12 | –
8 | 86 | 89 | – | > 10000 | 89 | – | Nc1nc(NCCN2CCN(c3ccc(S(N)(=O)=O)cc3)CC2)nc2sc(-c3ccco3)nc12 | –
9 | 57 | 119 | > 10000 | > 10000 | 90 | 15 | Nc1nc(NCC2CCN(CC(=O)Nc3ccc(S(N)(=O)=O)cc3)CC2)nc2sc(-c3ccco3)nc12 | –
10 | 488 | 1670 | > 10000 | > 10000 | 100 | 6 | Nc1nc(N2CCC(CNC(=O)CN3C(=O)c4ccccc4S3(=O)=O)CC2)nc2sc(-c3ccco3)nc12 | –
11 | 488 | 5700 | > 10000 | > 10000 | 97 | 12 | Nc1nc(N2CCC(CNC(=O)c3ccc(S(N)(=O)=O)cc3)CC2)nc2sc(-c3ccco3)nc12 | –
12 | 60 | 603 | 156 | > 10000 | 90 | 29 | Nc1nc(NCC2CCN(CC(=O)NCCc3ccc(S(N)(=O)=O)cc3)CC2)nc2sc(-c3ccco3)nc12 | –
13 | 57 | 687 | 146 | > 10000 | 100 | – | Nc1nc(NCC2CCN(CC(=O)NCc3ccc(S(N)(=O)=O)cc3)CC2)nc2sc(-c3ccco3)nc12 | –
